Measurements: ChEMBL document CHEMBL1201862, “PubChem BioAssay data set” (2004)
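All cell lines were grown in 96-well plates and treated with compound for 48 hours. The concentration for 50% growth inhibition is given as GI50.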 Activity calls are given as the source filed them. No stated cut-off is given here; in the data, active = GI50 up to about 1.1 µM and inactive = higher.

Experiments:
Assay in all cases: NCI anticancer screen, dose series, 48 h
Hs-578T = tested on: Hs-578T
T47D = tested on: T47D
UACC-62 = tested on: UACC-62
SR = tested on: SR
M14 = tested on: M14
TK-10 = tested on: TK-10
Malme-3M = tested on: Malme-3M
MDA-N = tested on: MDA-N
OVCAR-4 = tested on: OVCAR-4
SK-OV-3 = tested on: SK-OV-3
SNB-19 = tested on: SNB-19
IGROV-1 = tested on: IGROV-1
SW-620 = tested on: SW-620
786-0 = tested on: 786-0
NCI-H23 = tested on: NCI-H23
SK-MEL-5 = tested on: SK-MEL-5
NCI-H522 = tested on: NCI-H522
NCI/ADR-RES = tested on: NCI/ADR-RES
MOLT-4 = tested on: MOLT-4
COLO 205 = tested on: COLO 205
CCRF-CEM = tested on: CCRF-CEM
MCF7 = tested on: MCF7
HT-29 = tested on: HT-29
A498 = tested on: A498
OVCAR-5 = tested on: OVCAR-5
CAKI-1 = tested on: CAKI-1
HOP-62 = tested on: HOP-62
SK-MEL-2 = tested on: SK-MEL-2
HL-60 = tested on: HL-60
NCI-H226 = tested on: NCI-H226
MDA-MB-231 = tested on: MDA-MB-231
PC-3 = tested on: PC-3
EKVX = tested on: EKVX
UO-31 = tested on: UO-31
K562 = tested on: K562
RPMI-8226 = tested on: RPMI-8226
DU-145 = tested on: DU-145
RXF 393 = tested on: RXF 393
U-251 = tested on: U-251
HOP-92 = tested on: HOP-92
SN12C = tested on: SN12C
HCC 2998 = tested on: HCC 2998
A549 = tested on: A549
SF-539 = tested on: SF-539
BT-549 = tested on: BT-549
MDA-MB-435 = tested on: MDA-MB-435
LOX IMVI = tested on: LOX IMVI
UACC-257 = tested on: UACC-257
HCT-116 = tested on: HCT-116
SF-295 = tested on: SF-295
SF-268 = tested on: SF-268
KM12 = tested on: KM12
HCT-15 = tested on: HCT-15
OVCAR-8 = tested on: OVCAR-8
ACHN = tested on: ACHN
NCI-H460 = tested on: NCI-H460
OVCAR-3 = tested on: OVCAR-3
SK-MEL-28 = tested on: SK-MEL-28
SNB-75 = tested on: SNB-75

Question: Cc1ccc(S(=O)(=O)N2CCN(CCN(C)CCN3CCN(S(=O)(=O)c4ccc(C)cc4)CC3)CC2)cc1 was tested. Which GI50 (Hs-578T) did it give?
Answer: 22.3 µM (inactive)

Question: What about the GI50 (T47D) of the same molecule?
Answer: 19.3 µM (inactive)

Question: What about the GI50 (UACC-62) of the same molecule?
Answer: 17.9 µM (inactive)

Question: And the GI50 (SR)?
Answer: 18.5 µM (inactive)

Question: What about the GI50 (M14) of the same molecule?
Answer: 17.2 µM (inactive)

Question: What about the GI50 (TK-10) of the same molecule?
Answer: 16.1 µM (inactive)

Question: And the GI50 (Malme-3M)?
Answer: 18.6 µM (inactive)

Question: What about the GI50 (MDA-N) of the same molecule?
Answer: 18.9 µM (inactive)

Question: What about the GI50 (OVCAR-4) of the same molecule?
Answer: 19.5 µM (inactive)

Question: What about the GI50 (SK-OV-3) of the same molecule?
Answer: 18.4 µM (inactive)

Question: And the GI50 (SNB-19)?
Answer: 26.2 µM (inactive)

Question: And the GI50 (IGROV-1)?
Answer: 16.3 µM (inactive)

Question: What about the GI50 (SW-620) of the same molecule?
Answer: 16.9 µM (inactive)

Question: And the GI50 (786-0)?
Answer: 19.4 µM (inactive)

Question: And the GI50 (NCI-H23)?
Answer: 22.6 µM (inactive)

Question: What about the GI50 (SK-MEL-5) of the same molecule?
Answer: 16.3 µM (inactive)

Question: And the GI50 (NCI-H522)?
Answer: 19.8 µM (inactive)

Question: What about the GI50 (NCI/ADR-RES) of the same molecule?
Answer: 20 µM (inactive)

Question: What about the GI50 (MOLT-4) of the same molecule?
Answer: 14.1 µM (inactive)

Question: And the GI50 (COLO 205)?
Answer: 18.2 µM (inactive)

Question: What about the GI50 (CCRF-CEM) of the same molecule?
Answer: 18.7 µM (inactive)

Question: What about the GI50 (MCF7) of the same molecule?
Answer: 17.7 µM (inactive)

Question: What about the GI50 (HT-29) of the same molecule?
Answer: 14.5 µM (inactive)

Question: And the GI50 (A498)?
Answer: 16.4 µM (inactive)

Question: What about the GI50 (OVCAR-5) of the same molecule?
Answer: 28.5 µM (inactive)

Question: What about the GI50 (CAKI-1) of the same molecule?
Answer: 19.4 µM (inactive)

Question: What about the GI50 (HOP-62) of the same molecule?
Answer: 17.8 µM (inactive)

Question: What about the GI50 (SK-MEL-2) of the same molecule?
Answer: 18.8 µM (inactive)

Question: And the GI50 (HL-60)?
Answer: 16.1 µM (inactive)

Question: And the GI50 (NCI-H226)?
Answer: 25.7 µM (inactive)

Question: And the GI50 (MDA-MB-231)?
Answer: 20.6 µM (inactive)

Question: And the GI50 (PC-3)?
Answer: 20.7 µM (inactive)

Question: And the GI50 (EKVX)?
Answer: 22.5 µM (inactive)

Question: And the GI50 (UO-31)?
Answer: 13.9 µM (inactive)

Question: And the GI50 (K562)?
Answer: 15 µM (inactive)

Question: And the GI50 (RPMI-8226)?
Answer: 16.6 µM (inactive)

Question: And the GI50 (DU-145)?
Answer: 16 µM (inactive)

Question: And the GI50 (RXF 393)?
Answer: 14.3 µM (inactive)

Question: What about the GI50 (U-251) of the same molecule?
Answer: 17.3 µM (inactive)

Question: And the GI50 (HOP-92)?
Answer: 17.7 µM (inactive)

Question: What about the GI50 (SN12C) of the same molecule?
Answer: 18.5 µM (inactive)

Question: What about the GI50 (HCC 2998) of the same molecule?
Answer: 15.9 µM (inactive)

Question: What about the GI50 (A549) of the same molecule?
Answer: 23.3 µM (inactive)

Question: And the GI50 (SF-539)?
Answer: 16.4 µM (inactive)

Question: What about the GI50 (BT-549) of the same molecule?
Answer: 16.9 µM (inactive)

Question: What about the GI50 (MDA-MB-435) of the same molecule?
Answer: 17.7 µM (inactive)

Question: And the GI50 (LOX IMVI)?
Answer: 17.2 µM (inactive)

Question: What about the GI50 (UACC-257) of the same molecule?
Answer: 16.4 µM (inactive)

Question: And the GI50 (HCT-116)?
Answer: 17 µM (inactive)

Question: What about the GI50 (SF-295) of the same molecule?
Answer: 17.9 µM (inactive)

Question: And the GI50 (SF-268)?
Answer: 17.2 µM (inactive)

Question: What about the GI50 (KM12) of the same molecule?
Answer: 15.1 µM (inactive)

Question: What about the GI50 (HCT-15) of the same molecule?
Answer: 17.6 µM

Question: What about the GI50 (OVCAR-8) of the same molecule?
Answer: 17.4 µM (inactive)

Question: And the GI50 (ACHN)?
Answer: 17.9 µM (inactive)

Question: And the GI50 (NCI-H460)?
Answer: 17.5 µM (inactive)

Question: And the GI50 (OVCAR-3)?
Answer: 16.7 µM (inactive)

Question: And the GI50 (SK-MEL-28)?
Answer: 17.1 µM (inactive)

Question: N#Cc1cc2c(n(C3OC(CO)C(O)C(O)C3O)c1=S)CCC2 (centres undefined) was tested. Which GI50 (Hs-578T) did it give?
Answer: > 100 µM (inactive)

Question: And the GI50 (T47D)?
Answer: > 100 µM (inactive)

Question: What about the GI50 (UACC-62) of the same molecule?
Answer: > 100 µM (inactive)

Question: And the GI50 (SR)?
Answer: > 100 µM (inactive)

Question: What about the GI50 (M14) of the same molecule?
Answer: > 100 µM (inactive)

Question: And the GI50 (TK-10)?
Answer: > 100 µM (inactive)

Question: And the GI50 (Malme-3M)?
Answer: > 100 µM (inactive)

Question: And the GI50 (MDA-N)?
Answer: > 100 µM (inactive)

Question: And the GI50 (OVCAR-4)?
Answer: > 100 µM (inactive)

Question: What about the GI50 (SNB-19) of the same molecule?
Answer: > 100 µM (inactive)

Question: And the GI50 (IGROV-1)?
Answer: > 100 µM (inactive)

Question: What about the GI50 (786-0) of the same molecule?
Answer: > 100 µM (inactive)

Question: What about the GI50 (NCI-H23) of the same molecule?
Answer: > 100 µM (inactive)

Question: And the GI50 (SK-MEL-5)?
Answer: > 100 µM (inactive)

Question: And the GI50 (NCI-H522)?
Answer: > 100 µM (inactive)

Question: And the GI50 (NCI/ADR-RES)?
Answer: > 100 µM (inactive)

Question: And the GI50 (MOLT-4)?
Answer: > 100 µM (inactive)

Question: And the GI50 (SNB-75)?
Answer: 97.3 µM (inactive)

Question: And the GI50 (COLO 205)?
Answer: > 100 µM (inactive)

Question: What about the GI50 (CCRF-CEM) of the same molecule?
Answer: > 100 µM (inactive)

Question: What about the GI50 (MCF7) of the same molecule?
Answer: > 100 µM (inactive)

Question: And the GI50 (HT-29)?
Answer: > 100 µM (inactive)

Question: What about the GI50 (A498) of the same molecule?
Answer: > 100 µM (inactive)

Question: What about the GI50 (OVCAR-5) of the same molecule?
Answer: > 100 µM (inactive)

Question: What about the GI50 (CAKI-1) of the same molecule?
Answer: > 100 µM (inactive)

Question: What about the GI50 (HOP-62) of the same molecule?
Answer: > 100 µM (inactive)

Question: And the GI50 (SK-MEL-2)?
Answer: > 100 µM (inactive)

Question: And the GI50 (HL-60)?
Answer: > 100 µM (inactive)

Question: And the GI50 (NCI-H226)?
Answer: > 100 µM (inactive)

Question: What about the GI50 (MDA-MB-231) of the same molecule?
Answer: > 100 µM (inactive)

Question: And the GI50 (PC-3)?
Answer: > 100 µM (inactive)

Question: What about the GI50 (UO-31) of the same molecule?
Answer: > 100 µM (inactive)

Question: And the GI50 (K562)?
Answer: > 100 µM (inactive)

Question: And the GI50 (RPMI-8226)?
Answer: > 100 µM (inactive)

Question: And the GI50 (DU-145)?
Answer: > 100 µM (inactive)

Question: And the GI50 (RXF 393)?
Answer: > 100 µM (inactive)

Question: What about the GI50 (U-251) of the same molecule?
Answer: > 100 µM (inactive)

Question: What about the GI50 (HOP-92) of the same molecule?
Answer: > 100 µM (inactive)

Question: What about the GI50 (SN12C) of the same molecule?
Answer: > 100 µM (inactive)

Question: What about the GI50 (HCC 2998) of the same molecule?
Answer: > 100 µM (inactive)

Question: What about the GI50 (A549) of the same molecule?
Answer: > 100 µM (inactive)

Question: And the GI50 (SF-539)?
Answer: > 100 µM (inactive)

Question: And the GI50 (BT-549)?
Answer: > 100 µM (inactive)

Question: And the GI50 (MDA-MB-435)?
Answer: > 100 µM (inactive)

Question: What about the GI50 (LOX IMVI) of the same molecule?
Answer: > 100 µM (inactive)

Question: What about the GI50 (UACC-257) of the same molecule?
Answer: > 100 µM (inactive)

Question: And the GI50 (HCT-116)?
Answer: > 100 µM (inactive)

Question: What about the GI50 (SF-295) of the same molecule?
Answer: > 100 µM (inactive)

Question: And the GI50 (SF-268)?
Answer: > 100 µM (inactive)

Question: What about the GI50 (KM12) of the same molecule?
Answer: > 100 µM (inactive)

Question: And the GI50 (HCT-15)?
Answer: > 100 µM

Question: What about the GI50 (OVCAR-8) of the same molecule?
Answer: > 100 µM (inactive)

Question: What about the GI50 (ACHN) of the same molecule?
Answer: > 100 µM (inactive)

Question: And the GI50 (NCI-H460)?
Answer: > 100 µM (inactive)

Question: What about the GI50 (OVCAR-3) of the same molecule?
Answer: > 100 µM (inactive)

Question: And the GI50 (SK-MEL-28)?
Answer: > 100 µM (inactive)
